The record followed here is ChEMBL document CHEMBL4325829, “Design and Synthesis of Tubulin and Histone Deacetylase Inhibitor Based on iso-Combretastatin A-4” (J Med Chem, 2018).

In brackets after ≈: the same amount, converted by molar mass. Activity calls are given as the source filed them. No cut-off for these calls is given here. A value given as a limit tells only on which side of the number the result lay.

The subject of series [1] is HCT-116. Briefly: Antiproliferative activity against human HCT116 cells after 72 hrs by MTS assay. To be noted: Homo sapiens, HCT-116, 72 h. Type of series: functional. On the technique in general: Formazan colour is commonly taken as a measure of viable cells.
The nature of series [2]: Inhibition of sheep brain tubulin polymerization assessed as reduction in rate of microtubule assembly by DAPI-fluorescence based assay. Set-up: species or system Ovis aries.
The target of series [3] is Histone deacetylase 2 (Homo sapiens) (UniProt Q92769). The series is described as follows: Inhibition of human recombinant HDAC2 at 10^-5 M after 15 mins using fluorogenic substrate by fluorimetric assay relative to control.
Series [4] has as its target Histone deacetylase 5 (Homo sapiens) (UniProt Q9UQL6). The series is described as follows: Inhibition of human recombinant HDAC5 at 10^-5 M after 30 mins using fluorogenic substrate by fluorimetric assay relative to control.
In series [5] the target is T1, Protein deacetylase HDAC6 (Homo sapiens) (UniProt Q9UBN7).
T1 sequence (whole entry): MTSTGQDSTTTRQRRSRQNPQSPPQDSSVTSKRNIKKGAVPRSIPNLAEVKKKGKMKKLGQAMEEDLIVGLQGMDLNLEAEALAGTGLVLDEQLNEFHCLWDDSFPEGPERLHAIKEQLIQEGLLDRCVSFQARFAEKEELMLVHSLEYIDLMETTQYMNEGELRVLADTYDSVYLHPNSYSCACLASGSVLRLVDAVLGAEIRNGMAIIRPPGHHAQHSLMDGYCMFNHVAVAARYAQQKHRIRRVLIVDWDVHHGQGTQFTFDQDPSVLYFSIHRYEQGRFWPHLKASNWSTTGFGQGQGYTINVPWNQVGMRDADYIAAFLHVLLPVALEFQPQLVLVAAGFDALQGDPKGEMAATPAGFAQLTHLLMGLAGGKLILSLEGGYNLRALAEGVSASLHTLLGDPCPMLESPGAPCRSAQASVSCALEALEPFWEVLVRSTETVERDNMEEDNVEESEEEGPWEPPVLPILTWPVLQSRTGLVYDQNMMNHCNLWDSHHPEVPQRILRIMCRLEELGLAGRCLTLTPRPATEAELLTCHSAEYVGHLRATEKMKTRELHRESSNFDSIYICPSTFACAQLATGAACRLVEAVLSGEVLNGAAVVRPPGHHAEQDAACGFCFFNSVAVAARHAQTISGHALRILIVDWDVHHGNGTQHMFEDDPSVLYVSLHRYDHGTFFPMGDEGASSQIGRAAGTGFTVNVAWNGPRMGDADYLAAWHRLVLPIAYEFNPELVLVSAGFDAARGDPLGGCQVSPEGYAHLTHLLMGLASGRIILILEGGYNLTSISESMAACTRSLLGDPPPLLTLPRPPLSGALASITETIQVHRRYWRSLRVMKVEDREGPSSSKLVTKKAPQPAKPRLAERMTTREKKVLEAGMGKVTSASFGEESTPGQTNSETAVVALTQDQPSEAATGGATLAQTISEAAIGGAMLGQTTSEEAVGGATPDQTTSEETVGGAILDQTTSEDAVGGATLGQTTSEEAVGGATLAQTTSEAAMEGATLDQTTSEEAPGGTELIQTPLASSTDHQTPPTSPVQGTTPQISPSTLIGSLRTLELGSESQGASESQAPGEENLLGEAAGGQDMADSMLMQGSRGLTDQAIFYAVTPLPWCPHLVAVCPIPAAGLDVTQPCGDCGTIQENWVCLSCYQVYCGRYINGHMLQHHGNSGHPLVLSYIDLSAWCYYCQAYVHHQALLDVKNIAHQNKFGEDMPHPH
The series is described as follows: Inhibition of human recombinant HDAC6 at 10^-5 M after 30 mins using fluorogenic substrate by fluorimetric assay relative to control.

The target in series [6] is Histone deacetylase 7 (Homo sapiens) (UniProt Q8WUI4). Briefly: Inhibition of human recombinant HDAC7 at 10^-5 M after 45 mins using fluorogenic substrate by fluorimetric assay relative to control.
The target in series [7] is T2, Histone deacetylase 8 (Homo sapiens) (UniProt Q9BY41).
T2 sequence (whole entry): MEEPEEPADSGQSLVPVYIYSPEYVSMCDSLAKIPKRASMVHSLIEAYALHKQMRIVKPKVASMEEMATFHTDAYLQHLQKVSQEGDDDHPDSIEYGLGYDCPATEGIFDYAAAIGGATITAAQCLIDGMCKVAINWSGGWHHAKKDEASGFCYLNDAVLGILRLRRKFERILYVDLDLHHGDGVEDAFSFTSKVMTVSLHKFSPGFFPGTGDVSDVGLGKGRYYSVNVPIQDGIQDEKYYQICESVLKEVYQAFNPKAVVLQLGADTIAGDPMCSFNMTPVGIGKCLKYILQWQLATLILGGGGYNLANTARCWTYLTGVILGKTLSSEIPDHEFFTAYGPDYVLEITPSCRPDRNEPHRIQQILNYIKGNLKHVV
Briefly: Inhibition of human recombinant HDAC8 at 10^-5 M after 60 mins using fluorogenic substrate by fluorimetric assay relative to control.

The target of series [8] is Histone deacetylase 9 (Homo sapiens) (UniProt Q9UKV0). Briefly: Inhibition of human recombinant HDAC9 at 10^-5 M after 30 mins using fluorogenic substrate by fluorimetric assay relative to control.
Series [9] deals with T3, Histone deacetylase 11 (Homo sapiens, UniProt Q96DB2).
T3 sequence (Q96DB2 whole entry): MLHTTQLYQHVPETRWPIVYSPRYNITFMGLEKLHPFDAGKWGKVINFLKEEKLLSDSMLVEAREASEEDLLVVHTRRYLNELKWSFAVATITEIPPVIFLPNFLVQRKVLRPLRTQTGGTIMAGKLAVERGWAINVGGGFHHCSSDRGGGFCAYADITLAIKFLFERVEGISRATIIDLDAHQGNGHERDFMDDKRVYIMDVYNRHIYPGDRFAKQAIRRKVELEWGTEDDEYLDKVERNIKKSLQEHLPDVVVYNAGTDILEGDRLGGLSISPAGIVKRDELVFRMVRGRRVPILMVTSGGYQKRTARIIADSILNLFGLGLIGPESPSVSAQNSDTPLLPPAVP
The series is described as follows: Inhibition of human recombinant HDAC11 after 30 mins using fluorogenic substrate by fluorimetric assay.

In series [10] the test system is A549. The series is described as follows: Antiproliferative activity against human A549 cells after 72 hrs by MTS assay. The class given is functional. To be noted: Homo sapiens, A549, 72 h.
Series [11] has as its system K562. Briefly: Antiproliferative activity against human K562 cells after 72 hrs by MTS assay. Type of series: functional. The settings on record: Homo sapiens, K562, 72 h.
Series [12] concerns PC-3. Briefly: Antiproliferative activity against human PC3 cells after 72 hrs by MTS assay. Type of series: functional. The settings on record: Homo sapiens, PC-3, 72 h.
In series [13] the test system is MIA PaCa-2. The series is described as follows: Antiproliferative activity against human MIAPaCa2 cells after 72 hrs by MTS assay. The class given is functional. To be noted: Homo sapiens, MIA PaCa-2, 72 h.
Series [14] concerns BXPC-3. Briefly: Antiproliferative activity against human BxPC3 cells after 72 hrs by MTS assay. Type of series: functional. To be noted: Homo sapiens, BXPC-3, 72 h.
Series [15] is described as follows: Induction of apoptosis in human BL2 cells assessed as late apoptotic cells at 10 nM after 48 hrs by annexin V-FITC/propidium iodide double staining-based flow cytometry (reference value: 2.1%). The class given is functional. In general terms: In flow cytometry, cells or beads pass a laser one at a time.
Series [16] has as its system PBL. Briefly: Cytotoxicity against human PBL cells assessed as cell growth inhibition after 72 hrs by MTS assay. Type of series: ADME, cell-based.
Series [17] in a line: Aqueous solubility of the compound. Type of series: physicochemical. The settings on record: water.
Series [18] in a line: Lipophilicity, log P of the compound. Type of series: physicochemical. To be noted: octanol/water.

As usually defined, the GI50 is the concentration at which growth is held to half of that of the control. A word on the IC50: it is the midpoint of a concentration-inhibition curve. The inhibition is the relative decrease from the control value, in per cent. One may read the solubility as the concentration that dissolves in the medium under given conditions. Lower therefore signals a poorly soluble substance. As a reminder, the logP is the decadic logarithm of the partition coefficient of the neutral form, usually between octanol and water.

Chain of Histone deacetylase 7 (Homo sapiens) (Q8WUI4 whole entry): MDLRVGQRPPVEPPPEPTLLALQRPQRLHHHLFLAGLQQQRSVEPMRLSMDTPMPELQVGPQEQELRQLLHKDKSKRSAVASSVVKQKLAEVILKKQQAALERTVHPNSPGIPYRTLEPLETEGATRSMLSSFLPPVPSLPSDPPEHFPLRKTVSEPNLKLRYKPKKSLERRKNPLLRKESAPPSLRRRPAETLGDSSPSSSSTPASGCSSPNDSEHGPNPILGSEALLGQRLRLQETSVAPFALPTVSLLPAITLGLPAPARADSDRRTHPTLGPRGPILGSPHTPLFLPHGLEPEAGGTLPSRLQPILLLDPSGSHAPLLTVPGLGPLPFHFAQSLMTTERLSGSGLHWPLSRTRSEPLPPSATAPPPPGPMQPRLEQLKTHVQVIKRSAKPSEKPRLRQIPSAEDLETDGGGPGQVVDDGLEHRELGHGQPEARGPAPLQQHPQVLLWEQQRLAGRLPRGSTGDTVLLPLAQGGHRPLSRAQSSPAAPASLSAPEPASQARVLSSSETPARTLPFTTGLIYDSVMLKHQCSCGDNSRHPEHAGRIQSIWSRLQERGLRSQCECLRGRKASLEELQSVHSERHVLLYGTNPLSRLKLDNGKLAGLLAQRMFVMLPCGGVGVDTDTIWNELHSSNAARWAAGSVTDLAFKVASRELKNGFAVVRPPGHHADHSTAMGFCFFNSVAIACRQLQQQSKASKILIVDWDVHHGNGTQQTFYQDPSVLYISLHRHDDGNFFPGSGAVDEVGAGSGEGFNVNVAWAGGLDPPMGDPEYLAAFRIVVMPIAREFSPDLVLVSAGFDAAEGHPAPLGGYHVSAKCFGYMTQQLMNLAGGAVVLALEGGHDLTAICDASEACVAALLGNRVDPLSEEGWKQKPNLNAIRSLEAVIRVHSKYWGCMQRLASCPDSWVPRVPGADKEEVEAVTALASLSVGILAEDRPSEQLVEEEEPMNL
Chain of Histone deacetylase 5 (Homo sapiens) (Q9UQL6 whole entry): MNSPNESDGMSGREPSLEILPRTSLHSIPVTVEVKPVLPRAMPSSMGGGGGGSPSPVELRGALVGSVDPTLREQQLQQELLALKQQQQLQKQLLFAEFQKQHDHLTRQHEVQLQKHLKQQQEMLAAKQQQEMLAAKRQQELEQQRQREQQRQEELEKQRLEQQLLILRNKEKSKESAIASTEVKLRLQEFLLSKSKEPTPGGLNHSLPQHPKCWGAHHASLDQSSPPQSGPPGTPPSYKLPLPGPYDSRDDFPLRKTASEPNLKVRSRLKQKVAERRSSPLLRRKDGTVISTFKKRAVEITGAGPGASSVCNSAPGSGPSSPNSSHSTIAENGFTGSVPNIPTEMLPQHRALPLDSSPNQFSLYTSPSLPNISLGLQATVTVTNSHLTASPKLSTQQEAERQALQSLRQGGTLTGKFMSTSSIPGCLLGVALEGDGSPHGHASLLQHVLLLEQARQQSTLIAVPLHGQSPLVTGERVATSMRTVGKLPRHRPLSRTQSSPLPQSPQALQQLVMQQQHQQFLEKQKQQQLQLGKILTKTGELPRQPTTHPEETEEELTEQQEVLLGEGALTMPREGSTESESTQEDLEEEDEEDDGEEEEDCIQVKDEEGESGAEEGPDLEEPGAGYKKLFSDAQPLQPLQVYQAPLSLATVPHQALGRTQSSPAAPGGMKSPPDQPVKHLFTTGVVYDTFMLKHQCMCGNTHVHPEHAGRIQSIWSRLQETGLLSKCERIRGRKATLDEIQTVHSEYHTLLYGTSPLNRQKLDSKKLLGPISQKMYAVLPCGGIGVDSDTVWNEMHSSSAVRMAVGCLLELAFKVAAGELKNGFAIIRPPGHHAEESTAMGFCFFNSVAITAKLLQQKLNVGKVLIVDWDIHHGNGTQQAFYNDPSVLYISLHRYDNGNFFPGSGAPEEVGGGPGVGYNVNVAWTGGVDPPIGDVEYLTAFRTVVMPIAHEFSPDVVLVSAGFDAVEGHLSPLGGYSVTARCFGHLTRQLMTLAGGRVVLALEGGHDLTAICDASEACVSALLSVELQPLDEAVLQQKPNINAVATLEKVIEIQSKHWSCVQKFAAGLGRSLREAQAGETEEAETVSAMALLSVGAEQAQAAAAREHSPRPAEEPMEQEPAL
Chain of Histone deacetylase 2 (Homo sapiens) (Q92769 whole entry): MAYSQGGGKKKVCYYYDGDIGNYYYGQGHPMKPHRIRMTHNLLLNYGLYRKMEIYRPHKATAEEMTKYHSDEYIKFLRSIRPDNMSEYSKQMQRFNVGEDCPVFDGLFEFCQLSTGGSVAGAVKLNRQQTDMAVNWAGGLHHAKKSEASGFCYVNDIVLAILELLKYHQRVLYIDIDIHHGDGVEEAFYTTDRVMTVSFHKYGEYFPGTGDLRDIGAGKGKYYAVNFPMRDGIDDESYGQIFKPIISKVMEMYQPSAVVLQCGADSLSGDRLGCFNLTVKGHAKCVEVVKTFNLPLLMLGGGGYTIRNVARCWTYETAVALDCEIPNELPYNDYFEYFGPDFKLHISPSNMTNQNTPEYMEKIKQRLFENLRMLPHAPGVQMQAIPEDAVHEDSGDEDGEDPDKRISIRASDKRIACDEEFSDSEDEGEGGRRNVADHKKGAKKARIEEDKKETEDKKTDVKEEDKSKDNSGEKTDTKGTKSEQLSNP
Chain of Histone deacetylase 9 (Homo sapiens) (Q9UKV0 whole entry): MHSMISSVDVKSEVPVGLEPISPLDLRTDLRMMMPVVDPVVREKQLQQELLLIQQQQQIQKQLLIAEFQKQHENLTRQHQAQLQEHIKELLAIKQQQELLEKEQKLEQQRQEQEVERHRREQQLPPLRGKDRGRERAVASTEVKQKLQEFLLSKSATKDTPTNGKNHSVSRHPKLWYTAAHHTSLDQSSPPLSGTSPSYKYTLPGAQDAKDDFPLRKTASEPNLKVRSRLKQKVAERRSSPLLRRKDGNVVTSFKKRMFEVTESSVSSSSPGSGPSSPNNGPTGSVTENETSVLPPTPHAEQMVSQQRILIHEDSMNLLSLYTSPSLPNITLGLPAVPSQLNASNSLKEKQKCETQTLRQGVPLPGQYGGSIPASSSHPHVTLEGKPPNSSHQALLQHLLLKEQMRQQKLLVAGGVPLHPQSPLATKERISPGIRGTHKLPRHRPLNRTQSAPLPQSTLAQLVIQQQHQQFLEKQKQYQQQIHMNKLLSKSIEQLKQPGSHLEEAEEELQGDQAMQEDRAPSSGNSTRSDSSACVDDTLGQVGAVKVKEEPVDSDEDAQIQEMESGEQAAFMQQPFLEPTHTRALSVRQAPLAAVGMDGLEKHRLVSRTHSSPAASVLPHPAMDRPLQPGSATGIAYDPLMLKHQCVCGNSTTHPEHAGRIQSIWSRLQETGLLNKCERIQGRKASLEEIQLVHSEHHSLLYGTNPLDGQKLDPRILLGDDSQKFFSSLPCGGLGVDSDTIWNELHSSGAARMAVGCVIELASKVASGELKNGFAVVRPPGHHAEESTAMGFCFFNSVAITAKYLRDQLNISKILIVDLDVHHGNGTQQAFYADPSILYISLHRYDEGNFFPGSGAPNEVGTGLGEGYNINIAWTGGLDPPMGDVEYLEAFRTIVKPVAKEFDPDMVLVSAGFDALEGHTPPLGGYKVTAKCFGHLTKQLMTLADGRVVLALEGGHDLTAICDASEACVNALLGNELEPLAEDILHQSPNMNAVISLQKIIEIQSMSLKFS

Consider `C=C(c1ccc(OC)c(/C=C/C(=O)NO)c1)c1cc(OC)c(OC)c(OC)c1`, for which the GI50 in series [1] was 1.5 nM; in [10] it was 1.7 nM; in series [11], 1.6 nM; in series [12], 0.4 nM; in series [13] it was 5.1 nM; in series [14] it was 2.9 nM. The figures for the half-inhibitory concentration (IC50) in series [2], in [9] (read-out: IC50) and in [16] were 1600 nM, 10000 nM and 7000 nM, respectively. The inhibition is under 50% in series [3]; under 50% in series [4]; under 50% in [5]; under 50% in series [6]; 95% in series [7]; under 50% in series [8]. Besides, the Activity in series [15] amounted to 13.7%. For the same compound, in [17], the concentration in solution (solubility) came to 69.3 µg/mL (≈ 180 µM). Besides, in series [18] (read-out: logP), the log partition coefficient (logP) is 2.93.

With `C=C(c1ccc(OC)c(O)c1)c1cc(OC)c(OC)c(OC)c1`, the GI50 in [1] came to 2 nM; in [10] it was 10 nM; in [11] it was 5.2 nM; in [12], 3 nM; in series [13], 10 nM; in series [14] it was 20 nM. In addition, the concentration for half-maximal inhibition (IC50) in series [2] is 2000 nM; in series [9] it was “Not Active”; in series [16], 1700 nM. In addition, the inhibition entry in [3], in series [4], in series [5], in series [6], in series [7] and in series [8] was “inactive” each time. The Activity in series [15] was determined as 14.3%. The same compound showed a solubility in series [17] of 11.6 µg/mL (≈ 36.7 µM). In series [18], the logP is on record as 2.16.
